According to the supplement of paper PMC11451515:

Assays:
Conditions in all cases: 48 h
P12-Ichikawa = test: AUC of viability dose-response curve (% viability x log10 dose units); higher = less sensitive
In short: (§1)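 Medium-adapted leukemia cells in 1536-well plates, at 500 or 1000 cells/well, were incubated for 48 h at 37°C with library compounds in DMSO at 11 threefold doses from 47 μM to 0.79 nM. CellTiter-Glo One luminescence normalised per plate to DMSO and cell-free wells was fitted with a four-parameter log-logistic model over log10 doses. Area under the curve was integrated from this fit by trapezoidal rule, with curves beyond full viability scaled and failed quality-control curves removed.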

SEM cells [1] = test: as above
In short: as §1

NOMO1 = test: as above
In short: as §1

SEM cells [2] = test: cell viability relative to DMSO control; higher = less cytotoxic
In short: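 NOMO1 or SEM cells were plated at 500 cells/well and P12-Ichikawa cells at 1000 cells/well in 1536-well plates (5 μl), after each leukemia line had been adapted for at least four passages in each medium. Pin dosing delivered library compounds in DMSO at 11 threefold concentrations, 47 μM to 0.79 nM. CellTiter-Glo One luminescence was read after 48 h at 37°C. Viability is reported as a per-plate percentage of DMSO wells, with cell-free wells as background.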

C[C@H]1CC2C3CCC/4=C/C(=O)/C=C\[C@]4(C)[C@@]3(F)[C@@H](O)C[C@]2(C)[C@@]1(O)C(=O)CO (stereo partly specified)
AUC of viability dose-response curve
Conditions | NOMO1 | P12-Ichikawa | SEM cells [1]
HPLM + 10% dialyzed FBS | 420 | 374 | 372
RPMI 5 mM glucose + 10% FBS | 450 | 342 | 356
RPMI 5 mM glucose + 10% dialyzed FBS | 466 | 330 | 348

N[S+](=O)([O-])NCCNc1nonc1/C(=N/O)Nc1ccc(F)c(Br)c1
AUC of viability dose-response curve
Conditions | NOMO1 | P12-Ichikawa | SEM cells [1]
HPLM + 10% dialyzed FBS | 353 | 354 | 435
RPMI 5 mM glucose + 10% FBS | 373 | 389 | 375
RPMI 5 mM glucose + 10% dialyzed FBS | 411 | 401 | 414

CC(/C=C1\SC(=S)N(CC(=O)O)C1=O)=C\c1ccccc1
AUC of viability dose-response curve
Conditions | NOMO1 | P12-Ichikawa | SEM cells [1]
HPLM + 10% dialyzed FBS | 452 | 461 | 471
RPMI 5 mM glucose + 10% FBS | 454 | 440 | 420
RPMI 5 mM glucose + 10% dialyzed FBS | 472 | 457 | 476

CC(=O)NCCC(=O)N[C@@H](CCC(N)=O)C(=O)N[C@@H](CO)C(=O)N[C@@H](CCC(N)=O)C(=O)N[C@@H](CCC(N)=O)C(=O)N[C@H](C(=O)N[C@@H](Cc1ccccc1)C(=O)N[C@]1(C)CCCCCC/C=C\CCC[C@@](C)(C(=O)N[C@@H](CCC(N)=O)C(=O)N[C@@H](CC(N)=O)C(N)=O)NC(=O)[C@H](CC(C)C)NC(=O)[C@H](CC(C)C)NC(=O)[C@@H](CCCNC(=N)N)NC(=O)[C@H](Cc2c[nH]c3ccccc23)NC(=O)[C@H](CC(C)C)NC(=O)[C@H](CC(N)=O)NC1=O)[C@H](C)O
AUC of viability dose-response curve
Conditions | NOMO1 | P12-Ichikawa | SEM cells [1]
HPLM + 10% dialyzed FBS | 456 | 461 | 376
RPMI 5 mM glucose + 10% FBS | 451 | 460 | 321
RPMI 5 mM glucose + 10% dialyzed FBS | 426 | 437 | 346

Cc1cncc2cccc([S+](=O)([O-])N3CCCN(C(=O)CN)C[C@@H]3C)c12
AUC of viability dose-response curve
Conditions | NOMO1 | P12-Ichikawa | SEM cells [1]
HPLM + 10% dialyzed FBS | 455 | 401 | 419
RPMI 5 mM glucose + 10% FBS | 446 | 401 | 397
RPMI 5 mM glucose + 10% dialyzed FBS | 438 | 412 | 392

SEM cells [2], HPLM + 10% dialyzed FBS
Conditions | cell viability [%]
0.000781 µM | 94.8
0.00234 µM | 114
0.00702 µM | 126
0.0211 µM | 124
0.0632 µM | 122
0.19 µM | 134
0.569 µM | 138
1.71 µM | 137
5.12 µM | 79
15.4 µM | 66.7
46.1 µM | 39.9

O=C(O)COCCN1CCN(C(c2ccccc2)c2ccc(Cl)cc2)CC1 (stereo unspecified)
AUC of viability dose-response curve
Conditions | NOMO1 | P12-Ichikawa | SEM cells [1]
HPLM + 10% dialyzed FBS | 463 | 461 | 465
RPMI 5 mM glucose + 10% FBS | 459 | 461 | 453
RPMI 5 mM glucose + 10% dialyzed FBS | 451 | 455 | 469

cell viability [%], SEM cells [2]
Conditions | HPLM + 10% dialyzed FBS | RPMI 5 mM glucose + 10% FBS
0.000781 µM | 126 | 117
0.00234 µM | 125 | 118
0.00702 µM | 117 | 113
0.0211 µM | 130 | 108
0.0632 µM | 140 | 116
0.19 µM | 132 | 95.4
0.569 µM | 128 | 119
1.71 µM | 123 | 91
5.12 µM | 111 | 113
15.4 µM | 119 | 112
46.1 µM | 122 | 102

CC(=O)Nc1ccc(O)cc1
AUC of viability dose-response curve
Conditions | NOMO1 | P12-Ichikawa | SEM cells [1]
HPLM + 10% dialyzed FBS | 464 | 455 | 472
RPMI 5 mM glucose + 10% FBS | 459 | 458 | 476
RPMI 5 mM glucose + 10% dialyzed FBS | 463 | 470 | 467

CC(C)n1cnc2c(NCCCCCCNC(=O)OC(C)(C)C)nc(NCCO)nc21
AUC of viability dose-response curve
Conditions | NOMO1 | P12-Ichikawa | SEM cells [1]
HPLM + 10% dialyzed FBS | 443 | 464 | 453
RPMI 5 mM glucose + 10% FBS | 455 | 449 | 462
RPMI 5 mM glucose + 10% dialyzed FBS | 469 | 449 | 454

COc1cc(OC)c(OC)cc1C=O
AUC of viability dose-response curve
Conditions | NOMO1 | P12-Ichikawa | SEM cells [1]
HPLM + 10% dialyzed FBS | 467 | 455 | 439
RPMI 5 mM glucose + 10% FBS | 474 | 440 | 450
RPMI 5 mM glucose + 10% dialyzed FBS | 469 | 429 | 460

cell viability [%], SEM cells [2]
Conditions | HPLM + 10% dialyzed FBS | RPMI 5 mM glucose + 10% dialyzed FBS
0.000781 µM | 98 | 113
0.00234 µM | 111 | 96.5
0.00702 µM | 111 | 130
0.0211 µM | 109 | 144
0.0632 µM | 108 | 148
0.19 µM | 113 | 146
0.569 µM | 88.7 | 94
1.71 µM | 58.6 | 54
5.12 µM | 122 | 126
15.4 µM | 133 | 162
46.1 µM | 139 | 130
